# From patent publication US9700057B2, “Bradyrhizobium strains” (NOVOZYMES BIOAG A/S, priority 2011, dated 2017)
# Test system: parental strain USDA 532C
# Assay: Kill rate of USDA 532C using the mutagen ethyl methanesulfonate (EMS)
# Format: cell-based, Bradyrhizobia japonicum
# Experimental: The following experiment(s) were performed to determine the application rate of the mutagen, ethyl methanosulfonate (EMS) that would give a 99.9-99.99 percent kill rate for parental strain USDA 532C. This rate determination will become part of the mutagenesis protocol used to generate desiccation-resistant putative mutants although the method of mutagenesis may evolve for efficiency.
# Parental strain USDA 532C was grown in six 10 ml YEM disposable culture tubes for two days and 5 ml of the culture was inoculated into four 250 ml flasks containing 50 ml YEM medium. The flasks were incubated for two days at 30° C. shaker. The culture from the flasks were subsequently centrifuged in 50 ml disposable sterile tubes at 8,000 rpm for ten minutes in a Sorvall RC 6 Plus® centrifuge and combined into one tube. The pellet was re-suspended in 4 ml of fresh YEM medium and separated into four 1.5 ml microcentrifuge tubes. The tubes would each represent different application rates used for the mutagenesis process.
# Once the culture have been aliquoted into separate tubes and the mutagen EMS (Sigma, C3H8O3S, FW 124.16, #M0880-1G) added to each tube, the tubes were vortexed vigorously and placed in an empty 250 ml flask. The flask containing the reaction tubes were incubated for 30 minutes at 30° C. in a shaker. Immediately following the incubation period, the tubes were washed five times with 0.16M sodium thiosulfate (STS, Fisher Chemical, Na2S2O3*5H2O, FW 248.18, #S445-3)) solution to inactivate the mutagen. After washing, the cells in the reaction tubes were sheared with 21 gauge syringe needle (BD 1 ml 21G1 Latex Free Syringe PrecisionGlide® Needle, 0.8 mm×25 mm, #309624) and dilutions were completed and plated on YEMA plates. The cell counts were available after five days incubation at 30° C. and the percent kill of the EMS application rate was calculated. To calculate the percent kill rate for each application rate, the following equation was used: ([cell count 0 μl EMS (control)−(cell count of μl EMS (treatment))÷cell count 0 μl EMS (control)]×100%). All other experiments following this experiment used this equation to calculate the percent kill rate.
# [1] = Table 12, 25 μl EMS, decreased washing
# [2] = Table 14 (repeat of Table 13), 40 μl EMS
# [3] = Table 14 (repeat of Table 13), 45 μl EMS
# [4] = Table 15 (repeat of Table 14), 45 μl EMS
# [5] = Table 15 (repeat of Table 14), 50 μl EMS
smiles,measurement,setting,value
"CCOS(C)(=O)=O [EMS, ethyl methanesulfonate]",Cell counts (approximate cfu/ml),"Table 10, 10 μl EMS, 30 minutes at 30° C.",no difference
same,Cell counts (approximate cfu/ml),"Table 11, 15 μl EMS",2.24 × 10^9 cfu/ml
same,Percent kill rate,"Table 11, 15 μl EMS",10.17%
same,Cell counts (approximate cfu/ml),"Table 11, 25 μl EMS",1.72 × 10^9 cfu/ml
same,Percent kill rate,"Table 11, 25 μl EMS",30.92%
same,Cell counts (approximate cfu/ml),"Table 11, 50 μl EMS",1.67 × 10^1 cfu/ml
same,Cell counts (approximate cfu/ml),[1],1.27 × 10^9 cfu/ml
same,Percent kill rate,[1],73.09%
same,Cell counts (approximate cfu/ml),"Table 12, 35 μl EMS",5.37 × 10^8 cfu/ml
same,Percent kill rate,"Table 12, 35 μl EMS",88.58%
same,Cell counts (approximate cfu/ml),"Table 12, 50 μl EMS",2.93 × 10^2 cfu/ml
same,Percent kill rate,"Table 12, 50 μl EMS",100%
same,Cell counts (approximate cfu/ml),"Table 13, 40 μl EMS",6.97 × 10^8 cfu/ml
same,Percent kill rate,"Table 13, 40 μl EMS",82.26%
same,Cell counts (approximate cfu/ml),"Table 13, 45 μl EMS",8.57 × 10^7 cfu/ml
same,Percent kill rate,"Table 13, 45 μl EMS",97.82%
same,Cell counts (approximate cfu/ml),"Table 13, 50 μl EMS",2.65 × 10^5 cfu/ml
same,Percent kill rate,"Table 13, 50 μl EMS",99.99%
same,Cell counts (approximate cfu/ml),[2],1.35 × 10^9 cfu/ml
same,Percent kill rate,[2],99.81%
same,Cell counts (approximate cfu/ml),[3],5.27 × 10^8 cfu/ml
same,Percent kill rate,[3],99.93%
same,Cell counts (approximate cfu/ml),"Table 14 (repeat of Table 13), 50 μl EMS",2.19 × 10^6 cfu/ml
same,Cell counts (approximate cfu/ml),[4],3.33 × 10^4 cfu/ml
same,Percent kill rate,[4],99.98%
same,Cell counts (approximate cfu/ml),[5],4.33 × 10^1 cfu/ml
same,Percent kill rate,[5],100%
